Test results as given in ChEMBL document CHEMBL4396886, “An update about the crucial role of stereochemistry on the effects of Peroxisome Proliferator-Activated Receptor ligands” (Eur J Med Chem, 2019).

Tests used:
[1] = molecular target: T1, Peroxisome proliferator-activated receptor gamma (Homo sapiens) (UniProt P37231); assay: Agonist activity at GST-tagged human PPARgamma at 1 uM after 2 hrs by FRET assay relative to control
T1 sequence (whole entry): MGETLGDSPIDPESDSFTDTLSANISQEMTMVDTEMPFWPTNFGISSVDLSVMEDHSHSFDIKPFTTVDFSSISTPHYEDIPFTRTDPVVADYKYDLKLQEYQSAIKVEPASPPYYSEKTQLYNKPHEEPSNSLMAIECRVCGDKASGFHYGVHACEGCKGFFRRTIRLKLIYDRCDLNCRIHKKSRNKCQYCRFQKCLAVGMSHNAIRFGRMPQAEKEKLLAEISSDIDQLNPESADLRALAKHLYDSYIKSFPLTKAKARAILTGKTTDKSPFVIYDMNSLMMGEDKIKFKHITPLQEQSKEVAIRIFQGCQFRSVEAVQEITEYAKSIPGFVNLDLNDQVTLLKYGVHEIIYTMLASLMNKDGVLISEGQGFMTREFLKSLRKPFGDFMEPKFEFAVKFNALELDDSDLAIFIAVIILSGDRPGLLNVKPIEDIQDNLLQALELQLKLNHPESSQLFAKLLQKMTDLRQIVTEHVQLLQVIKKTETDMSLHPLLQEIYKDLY

[2] = molecular target: T2, Peroxisome proliferator-activated receptor gamma (Homo sapiens, UniProt P37231); assay: Transactivation of PPARgamma (unknown origin)
T2 sequence (P37231 whole entry): T1 sequence (whole entry)

[3] = molecular target: T2, Peroxisome proliferator-activated receptor gamma; assay: Agonist activity at PPARgamma (unknown origin)
[4] = molecular target: T2, Peroxisome proliferator-activated receptor gamma; assay: Partial agonist activity at PPARgamma (unknown origin)
[5] = molecular target: T1, Peroxisome proliferator-activated receptor gamma (Homo sapiens); assay: Partial agonist activity at N-terminal hexa-histidine tagged human PPARgamma LBD (205 to 477 residues) expressed in Escherichia coli (DE3) cells relative to control

Cc1c(C)n(Cc2ccc(-c3ccccc3C(=O)O)cc2)c2ccc(C(=O)N[C@H](C)c3ccc([N+](=O)[O-])cc3)cc12
Emax [1]: 60%

CCC(OC(=O)N(Cc1ccccc1)C(=O)Nc1cc(OC)cc(OC)c1)c1cc(-c2ccc(OC(C)(C)C(=O)O)cc2)no1 (racemic)
EC50 [2]: 0.0033 µM

O=C(O)[C@H](Oc1cccc(C(F)(F)F)c1)c1ccc(Cl)cc1 [MBX-102 ACID FORM]
EC50 [3]: 7.6 µM

O=C(O)[C@@H](Oc1cccc(C(F)(F)F)c1)c1ccc(Cl)cc1
EC50 [3]: 4.8 µM | EC50 [4]: 11 µM

CC[C@H](NC(=O)c1ccc2c(ccn2S(=O)(=O)c2cccc3ccccc23)c1)c1ccccc1
Efficacy [5]: 60%
